# Source: patent publication US20070190060A1, “Passive targeting of cytotoxic agents” (Wyeth, priority 2004, published 2007)
# Where “and” joins values, the source holds several entries; their conditions need not be identical. Equal values may be shown once.
# Key:
# [1] = tested on: A431 epidermoid carcinoma xenografts; test: Tumor growth inhibition, subcutaneous A431 xenografts; assay type: in vivo, athymic nude mice; conditions: for average tumor size as % of the control tumors: intravenous, twenty-seven days following onset of therapy
# Method: (§1) Subcutaneous tumors of N87, LOVO, A431/Le^y, LS174T and L2987 were grown in athymic nude mice (Charles River, Wilmington, Mass.). Two-month-old female mice were injected with respectively 5×10^6 N87, LOVO, A431/Le^y or LS174T cells per mouse. L2987 cells were injected in male nude mice that were between 7 and 8 weeks old. To grow tumors, N87 cells had to be mixed (1:1, vol/vol) with […]® (Collaborative Biomedical Products, Belford, Mass.) prior to injection. Two perpendicular diameters of the tumor were measured by means of calipers at time intervals specified in the result section. The tumor volume was calculated according to the formula of Attia&Weiss: A^2×B×0.4. A and B are symbols for the smaller and the larger tumor diameter, respectively.
# […] Mice with xenografts of approximately 80 mm^3 were selected prior to treatment. The amounts of CalichDMH or conjugate given are expressed in calicheamicn equivalents.
# Both T and C are determined at the same day following initiation of treatment.
# N87 xenografts = test: Tumor growth inhibition, subcutaneous N87 xenografts; assay type: in vivo, athymic nude mice
# Method: as §1, with “respectively. The treatment schedules, dose and number of mice per group are specified in the result section and in the figure legends.” for “respectively.”
# (§2) As shown in Table 2 (tumor volume reduction of CD33-tumor xenografts following treatment (T) with hp67.6-AcBut-CalichDMH and expressed as a percentage of controls treated with vehicle (T/C %)), hp67.6-AcBut-CalichDMH inhibited tumor growth of human tumor xenografts with diverse histiotypic origin. […] This value is the average tumor volume of a group of mice that were treated with hp67.6-AcBut-CalichDMH (T) expressed as a percentage of the average tumor volume of a control group (C). Both T and C are determined at the same day following initiation of treatment. The T/C-values in table II were derived from 27 independent experiments and were determined between 17 and 34 days after injection of the first dose of hp67.6-AcBut-CalichDMH. […] Significant inhibition was also observed when lower amounts of the conjugate were administered.
# HT29 xenografts = test: Tumor growth inhibition, subcutaneous HT29 xenografts; assay type: in vivo, athymic nude mice; conditions: 4.00 μg per dose, Q4D×3, 33 days after first dose
# LOVO xenografts = test: Tumor growth inhibition, subcutaneous LOVO xenografts; assay type: in vivo, athymic nude mice; conditions: for T/C (%): LOVO, 4.00 μg per dose, Q4D×3
# Method: as §1, with “respectively. The treatment schedules, dose and number of mice per group are specified in the result section and in the figure legends.” for “respectively.”
# as §2
# L2987 xenografts = test: Tumor growth inhibition, subcutaneous L2987 xenografts; assay type: in vivo, athymic nude mice
# Method: as §1, with “respectively. The treatment schedules, dose and number of mice per group are specified in the result section and in the figure legends.” for “respectively.”
# as §2
# PC14PE6 xenografts = test: Tumor growth inhibition, subcutaneous PC14PE6 xenografts; assay type: in vivo, athymic nude mice
# MDAMB435/5T4 xenografts = test: Tumor growth inhibition, subcutaneous MDAMB435/5T4 xenografts; assay type: in vivo, athymic nude mice
# A431/Le^Y xenografts = test: Tumor growth inhibition, subcutaneous A431/LeY xenografts; assay type: in vivo, athymic nude mice
# Method: as §1, with “respectively. […]” for “respectively.”
# As shown in Table 2 (tumor volume reduction of CD33-tumor xenografts following treatment (T) with hp67.6-AcBut-CalichDMH and expressed as a percentage of controls treated with vehicle (T/C %)), hp67.6-AcBut-CalichDMH inhibited tumor growth of human tumor xenografts with diverse histiotypic origin. […] This value is the average tumor volume of a group of mice that were treated with hp67.6-AcBut-CalichDMH (T) expressed as a percentage of the average tumor volume of a control group (C). Both T and C are determined at the same day following initiation of treatment. […]
# KB 8.5 xenografts = test: Tumor growth inhibition, subcutaneous KB 8.5 xenografts; assay type: in vivo, athymic nude mice; conditions: 4.00 μg per dose, Q4D×3, 22 days after first dose
# LNCaP xenografts = test: Tumor growth inhibition, subcutaneous LNCaP xenografts; assay type: in vivo, athymic nude mice
# PC3MM2 xenografts = test: Tumor growth inhibition, subcutaneous PC3MM2 xenografts; assay type: in vivo, athymic nude mice; conditions: 4.00 μg per dose, Q4D×3, 29 days after first dose
# [2] = In vivo distribution of 125I-labeled conjugate in A431 tumor-bearing mice; design: species or system female nude mice
# Method: Gemtuzumab ozogamicin was labeled with ^125I using the Bolton-Hunter reagent (NEN, Boston, Mass.). A group of 30 tumor-bearing female nude mice were injected in the lateral tail vein with ^125I-labeled conjugate 20 μCi/[…]. The tumor weight at the time of injection was approximately 1 g. Groups of 5 mice were killed by CO2 inhalation at 2, 6, 24, 48, 72 and 96 h following the injection. The amount of γ radiation in the tissues as specified in FIG. 2 was determined at these time points. Biodistribution of the conjugate was expressed as a percentage of the injected dose per gram tissue (% ID/g) or as a percentage of the blood level at a given time point (% Blood). Steadily increasing concentrations of hp67.6-AcBut-CalichDMH were exclusively observed in tumor tissue. The doubling time of accumulation is 150 h for A431 tumors.
# The kinetics of hp67.6-AcBut-CalichDMH in various mouse tissues and in CD33-negative A431-tumor xenografted tumor were compared. Following injection of 200 µg (20 μCi) ^125I labeled conjugate, the amount of radioactive label was measured in various tissues at 2, 6, 24, 48, 72 and 96 h (FIG. 2). The amount of radioactive material was expressed relative to the amount present in whole blood at the time of measurement (% Blood, Y1 axes in FIG. 2). Percent blood (% Blood) is given by the formula, 100×Bq per gram tissue/Bq per gram blood. In addition, the amount of radioactive material was also expressed relative to total amount of conjugate given (% ID/g, Y2 axes in FIG. 2). Only a marginal amount of 125I labeled conjugate is retained in the brain. […] The % Blood was on average 3.5%.
# [3] = intraperitoneally Q4D×3, equivalent or higher doses than hp67.6-AcBut-CalichDMH (FIGS. 1B and 1C)
# [4] = intravenous administration, same dose, frequency and interval (Q4D×3)
# [5] = 1.00 μg per dose, 28 days after first dose
# [6] = 2.00 μg per dose, 28 days after first dose
# [7] = 2.00 μg per dose, 30 days after first dose
# [8] = 4.00 μg per dose, Q4D×3, 28 days after first dose
# [9] = 4.00 μg per dose, Q4D×3, 30 days after first dose
# [10] = 2.00 μg per dose, 29 days after first dose
# [11] = 4.00 μg per dose, Q4D×3, 29 days after first dose
compound,measurement,setting,value
"CCN(C(C)=O)[C@H]1CO[C@@H](O[C@H]2[C@H](O[C@H]3C#C/C=C\C#C[C@]4(O)CC(=O)C(NC(=O)OC)=C3/C4=C\CSSC(C)(C)CC(=O)NN)O[C@H](C)[C@@H](NO[C@H]3C[C@H](O)[C@H](SC(=O)c4c(C)c(I)c(O[C@@H]5O[C@@H](C)[C@H](O)[C@@H](OC)[C@H]5O)c(OC)c4OC)[C@@H](C)O3)[C@@H]2O)C[C@@H]1OC [CalichDMH, N-acetyl-γ-calicheamicin dimethyl hydrazide]",tumor growth inhibition of A431 xenografts,[1]; [3],did not inhibit tumor growth
same,tumor growth inhibition of A431 xenografts,[1]; [4],did not yield significant tumor growth inhibition
hp67.6-AcBut-CalichDMH: antibody against CD33 (hp67.6) bound to N-acetyl gamma calicheamicin dimethyl hydrazide by the acid labile AcBut linker,T/C (%),N87 xenografts; [5],55%
same,T/C (%),N87 xenografts; [6],41%
same,T/C (%),N87 xenografts; [7],54%
same,T/C (%),"N87 xenografts; 4.00 μg per dose, Q4D×3, 27 days after first dose",19%
same,T/C (%),N87 xenografts; [8],60%
same,T/C (%),N87 xenografts; [9],48%
same,T/C (%),"N87 xenografts; 4.00 μg per dose, Q4D×3, 31 days after first dose",39%
same,T/C (%),"N87 xenografts; 4.00 μg per dose, Q4D×3, 33 days after first dose",39% and 42%
same,T/C (%),HT29 xenografts,36%
same,T/Cmin value (minimum T/C-value observed during an experiment),"LOVO xenografts; LOVO colon carcinoma, 4 μg CalichDMH per mouse, intraperitoneally Q4D×3 (FIG. 5)",exceptionally high
same,T/C (%),LOVO xenografts; 25 days after first dose,80%
same,T/C (%),LOVO xenografts; 29 days after first dose,47% and 76%
same,T/C (%),"L2987 xenografts; 0.75 μg per dose, 21 days after first dose",33%
same,T/C (%),"L2987 xenografts; 1.50 μg per dose, 21 days after first dose",77%
same,T/C (%),L2987 xenografts; [7],5%
same,T/C (%),"L2987 xenografts; 3.00 μg per dose, 21 days after first dose",5%
same,T/C (%),L2987 xenografts; [9],1%
same,T/C (%),"L2987 xenografts; 4.00 μg per dose, Q4D×3, 35 days after first dose",1%
same,T/C (%),"PC14PE6 xenografts; 1.00 μg per dose, 29 days after first dose",52%
same,T/C (%),"PC14PE6 xenografts; 2.00 μg per dose, 17 days after first dose",59%
same,T/C (%),PC14PE6 xenografts; [10],42%
same,T/C (%),"PC14PE6 xenografts; 4.00 μg per dose, Q4D×3, 17 days after first dose",27%
same,T/C (%),"PC14PE6 xenografts; 4.00 μg per dose, Q4D×3, 22 days after first dose",15%
same,T/C (%),PC14PE6 xenografts; [11],14%
same,T/C (%),MDAMB435/5T4 xenografts; [10],45%
same,T/C (%),MDAMB435/5T4 xenografts; [11],32%
same,T/C (%),"MDAMB435/5T4 xenografts; 4.00 μg per dose, Q4D×3, 34 days after first dose",30%
same,growth of A431 xenografts,"[1]; 3 doses of 4 μg, intraperitoneally Q4D×3, up to 27 days following treatment",significantly (p=0.03) inhibited
same,T/C (%),"[1]; A431, 1.00 μg per dose, 27 days after first dose",146%
same,T/C (%),"[1]; A431, 2.00 μg per dose, 27 days after first dose",72%
same,time xenografts remained significantly (p=0.004) smaller than the controls,"[1]; A431, 2 μg/dose, intraperitoneally Q4D×3 (FIG. 1A)",21 days
same,T/C (%),"[1]; A431, 4.00 μg per dose, Q4D×3, 27 days after first dose",21% and 35%
same,T/C (%),"[1]; A431, 4.00 μg per dose, Q4D×3, 28 days after first dose",12%
same,average tumor size as % of the control tumors,"[1]; A431, 2 μg Q4D×3",23%
same,average tumor size as % of the control tumors,"[1]; A431, 4 μg Q4D×3",11%
same,tumor growth inhibition of A431 xenografts,[1]; [4],Significant growth inhibition
same,T/C (%),A431/Le^Y xenografts; [10],37%
same,T/C (%),A431/Le^Y xenografts; [11],<1%
same,T/C (%),KB 8.5 xenografts,27%
same,T/C (%),"LNCaP xenografts; 0.50 μg per dose, 28 days after first dose",102%
same,T/C (%),LNCaP xenografts; [5],59%
same,T/C (%),LNCaP xenografts; [6],30%
same,T/C (%),LNCaP xenografts; [10],34%
same,T/C (%),LNCaP xenografts; [8],24%
same,T/C (%),LNCaP xenografts; [11],7%
same,T/C (%),PC3MM2 xenografts,33%
same,"% ID/g value in function of time, tumor tissue","[2]; A431 tumor tissue, 2 to 96 h",steady increase
same,doubling time of accumulation in tumor,"[2]; A431 tumors, 125I-labeled conjugate, lateral tail vein",150 h
same,"% Blood (100×Bq per gram tissue/Bq per gram blood), brain, on average","[2]; brain, within 96 hours, 125I-labeled conjugate",3.5%
same,time of highest % Blood-value,"[2]; heart, intestine and spleen, after injection, then steadily decreased",2 h
same,time of peak of the % Blood-value,[2]; liver and striated muscle,48 h
same,"% ID/g in function of time, all the other tissues examined","[2]; normal tissues, 2 to 96 h",decreased in function of time
same,time after which % Blood-value reached a plateau,[2]; skin,24 h
hp67.6-Amide-CalichDMA: hp67.6 linked to CalichDMA with the acid stabile Amide (4-mercapto-4-methyl-pentanoic acid) linker,tumor growth inhibition of A431 xenografts,[1]; [3],did not inhibit tumor growth
same,tumor growth inhibition of A431 xenografts,[1]; [4],did not yield significant tumor growth inhibition
